Results on two compounds are retold here after patent EP0717746B1, “PHOSPHINIC ACID DERIVATIVES WITH ANTI-HYPER GLYCEMIC AND/OR ANTI-OBESITY ACTIVITY” (SMITHKLINE BEECHAM PLC, priority 1993, dated 1995).

Molecules are shown by their SMILES.

The experiment addresses T1, human β3-adrenoceptor (Homo sapiens, UniProt P13945).
T1 construct: expressed in transfected cells; host or cells: CHO cells (stably transfected subclones); plasma membranes prepared
Description: β3-Adrenoceptor-mediated adenylyl cyclase activity in CHO cell plasma membranes. It counts as biochemical. Conditions: concentration of agonist producing 50 % activation of adenylyl cyclase; CHO cell plasma membranes transfected with the human β3-adrenoceptor; cAMP produced over 20 minutes. The procedure:
Subclones of CHO cells were stably transfected with each of the human β1, β2 and β3-adrenoceptors^1. Cells were then disrupted by immersion in ice-cold lysis buffer (10 mM TRIS, 2mM EDTA , pH 7.4) containing protease inhibitors leupeptin and benzamidine (5 µg / ml) and soyabean trypsin inhibitor (10 µg / ml). Membranes were prepared by the method of Bouvier et. al.^2 and stored in 1 ml aliquots in liquid N2 for future use.
Adenylyl cyclase activity was assayed by the method of Kirkham et. al.^3 by the addition of 40 µl (70 -80 µg protein) to the incubation medium of the above CHO cell plasma membranes transfected with the human β3-adrenoceptor . cAMP produced over 20 minutes was separated from ATP by the method of Salomon et al.^4. Agonist EC50 values and intrinsic activities were expressed as the concentration of agonist producing 50 % activation of adenylyl cyclase and the maximum response produced by each agonist relative to that produced by (-) isoprenaline respectively.

T1 sequence (P13945 whole entry): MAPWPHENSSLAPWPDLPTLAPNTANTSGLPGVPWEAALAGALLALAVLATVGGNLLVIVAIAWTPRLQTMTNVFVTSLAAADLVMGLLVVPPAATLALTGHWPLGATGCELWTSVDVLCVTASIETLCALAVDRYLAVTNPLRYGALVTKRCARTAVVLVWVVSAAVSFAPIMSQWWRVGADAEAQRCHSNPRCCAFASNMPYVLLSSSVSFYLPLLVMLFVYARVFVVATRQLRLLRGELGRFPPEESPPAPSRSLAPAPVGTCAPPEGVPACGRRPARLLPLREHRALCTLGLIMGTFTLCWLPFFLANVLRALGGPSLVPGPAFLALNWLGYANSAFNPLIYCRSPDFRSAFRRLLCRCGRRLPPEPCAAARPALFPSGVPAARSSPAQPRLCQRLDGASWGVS

`CCOP(=O)(CC)COc1ccc(CC(C)NC[C@H](O)c2ccc(O)c(O)c2)cc1` (some centres unmarked) [Example 2, (RR RS) Ethyl 4-[2-[2-(3,4-dihydroxyphenyl)-2-hydroxyethylamino]propyl]phenoxymethylethylphosphinate] came in with an EC50 of 460 nM.

`CC(Cc1ccc(OCP(=O)(O)c2ccccc2)cc1)NC[C@H](O)c1ccc(O)c(O)c1` (some centres unmarked) [Example 3, (RR RS) 4-[2-[2-(3,4-Dihydroxyphenyl)-2-hydroxyethylamino]propyl]phenoxymethyl phenylphosphinic acid.]: the EC50 was found to be 540 nM.
